According to ChEMBL document CHEMBL5512623, “Discovery of the novel and potent histamine H1 receptor antagonists for treatment of allergic diseases” (Eur J Med Chem, 2024):
Values belong to the compound of their own block, whether it stands above or below them.

Experiments:
[1] = Subacute toxicity in Sprague-Dawley rat assessed as wheezing at 140 mg/kg, IG administered once a day for 14 days; format: organism-based; settings: in vivo, po, 336 h, time 14 day
[2] = Subacute toxicity in Sprague-Dawley rat assessed as lethargy at 140 mg/kg, IG administered once a day for 14 days; format: organism-based; settings: in vivo, po, 336 h, time 14 day
[3] = Cmax in female Sprague-Dawley rat plasma at 10 mg/kg, IG administered as single dose; format: ADME, organism-based; settings: po
[4] = AUC (0 to t) in male Sprague-Dawley rat at 4 mg/kg, iv administered via tail vein and measured upto 24 hrs by LC-MS/MS analysis; format: ADME, organism-based; settings: in vivo
[5] = MRT (0 to infinity) in male Sprague-Dawley rat at 4 mg/kg, iv administered via tail vein and measured upto 24 hrs by LC-MS/MS analysis; format: ADME, organism-based; settings: in vivo
[6] = Acute toxicity in Sprague-Dawley rat assessed as weight loss at 700 mg/kg, IG measured for 7 days; format: organism-based; settings: in vivo, po, 168 h, time 7 day
[7] = Cmax in female Sprague-Dawley rat brain at 10 mg/kg, IG administered as single dose; format: ADME, organism-based; settings: po
[8] = Subacute toxicity in Sprague-Dawley rat assessed as effect on white blood cell count at 140 mg/kg, IG administered once a day for 14 days; format: organism-based; settings: in vivo, po, 336 h, time 14 day
[9] = AUC (0 to infinity) in male Sprague-Dawley rat at 4 mg/kg, iv administered via tail vein and measured upto 24 hrs by LC-MS/MS analysis; format: ADME, organism-based; settings: in vivo
[10] = Metabolic stability in human liver microsomes at 1 uM measured upto 120 mins by LC-MS/MS analysis; format: ADME, Microsome; settings: 2 h
[11] = Plasma protein binding in human assessed as binding rate at 250 ng/ml prewarmed for 30 mins by LC-MS/MS analysis; format: ADME, cell-free; settings: read-out: PPB (converted)
[12] = Plasma protein binding in rat assessed as binding rate at 1000 ng/ml prewarmed for 30 mins by LC-MS/MS analysis; format: ADME, cell-free; settings: read-out: PPB (converted)
[13] = Plasma protein binding in rat assessed as binding rate at 250 ng/ml prewarmed for 30 mins by LC-MS/MS analysis; format: ADME, cell-free; settings: read-out: PPB (converted)
[14] = Subacute toxicity in Sprague-Dawley rat assessed as increase in spleen to brain ratio at 140 mg/kg, IG administered once a day for 14 days; format: organism-based; settings: in vivo, po, 336 h, time 14 day
[15] = Subacute toxicity in Sprague-Dawley rat assessed as organ abnormalities at 50 mg/kg, IG administered once a day for 14 days; format: organism-based; settings: in vivo, po, 336 h, time 14 day
[16] = Acute toxicity in Sprague-Dawley rat assessed as reduction in animal activity at 700 mg/kg, IG measured for 7 days; format: organism-based; settings: in vivo, po, 168 h, time 7 day
[17] = Metabolic stability in Beagle dog liver microsomes at 1 uM measured upto 120 mins by LC-MS/MS analysis; format: ADME, Canis lupus familiaris, Microsome; settings: 2 h
[18] = Ratio of Cmax in female Sprague-Dawley rat brain to plasma at 10 mg/kg, IG administered as single dose; format: ADME, organism-based; settings: brain and plasma, po, read-out: BPR
[19] = Acute toxicity in Sprague-Dawley rat assessed as lethargy at 700 mg/kg, IG measured for 7 days; format: organism-based; settings: in vivo, po, 168 h, time 7 day
[20] = Plasma protein binding in human assessed as binding rate at 500 ng/ml prewarmed for 30 mins by LC-MS/MS analysis; format: ADME, cell-free; settings: read-out: PPB (converted)
[21] = Apparent permeability across basolateral to apical side in human Caco-2 cells at 5 uM measured at 60 mins; format: ADME, cell-based
[22] = Cmax in male Sprague-Dawley rat plasma at 10 mg/kg, IG administered as single dose; format: ADME, organism-based; settings: po
[23] = Volume of distribution in male Sprague-Dawley rat at 4 mg/kg, iv administered via tail vein and measured upto 24 hrs by LC-MS/MS analysis; format: ADME, organism-based; settings: in vivo
[24] = Ratio of Cmax in male Sprague-Dawley rat brain to plasma at 10 mg/kg, IG administered as single dose; format: ADME, organism-based; settings: brain and plasma, po, read-out: BPR
[25] = Cmax in male Sprague-Dawley rat at 25 mg/kg, po measured upto 24 hrs by LC-MS/MS analysis; format: ADME, organism-based; settings: in vivo
[26] = Half life in male Sprague-Dawley rat at 4 mg/kg, iv administered via tail vein and measured upto 24 hrs by LC-MS/MS analysis; format: ADME, organism-based; settings: in vivo
[27] = Subacute toxicity in Sprague-Dawley rat assessed as effect on ECG at 140 mg/kg, IG administered once a day for 14 days; format: organism-based; settings: in vivo, po, 336 h, time 14 day
[28] = Volume of distribution in male Sprague-Dawley rat at 25 mg/kg, po measured upto 24 hrs by LC-MS/MS analysis; format: ADME, organism-based; settings: in vivo
[29] = Half life in male Sprague-Dawley rat at 25 mg/kg, po measured upto 24 hrs by LC-MS/MS analysis; format: ADME, organism-based; settings: in vivo
[30] = Apparent permeability across apical to basolateral side in human Caco-2 cells at 5 uM measured at 60 mins; format: ADME, cell-based
[31] = Subacute toxicity in Sprague-Dawley rat assessed as ptosis at 140 mg/kg, IG administered once a day for 14 days; format: organism-based; settings: in vivo, po, 336 h, time 14 day
[32] = Cmax in male Sprague-Dawley rat brain at 10 mg/kg, IG administered as single dose; format: ADME, organism-based; settings: po
[33] = Oral bioavailability in male Sprague-Dawley rat at 25 mg/kg measured upto 24 hrs by LC-MS/MS analysis; format: ADME, organism-based; settings: in vivo
[34] = Subacute toxicity in Sprague-Dawley rat assessed as effect on neutrophil count at 140 mg/kg, IG administered once a day for 14 days; format: organism-based; settings: in vivo, po, 336 h, time 14 day
[35] = Subacute toxicity in Sprague-Dawley rat assessed as abnormal symptoms at 50 mg/kg, IG administered once a day for 14 days; format: organism-based; settings: in vivo, po, 336 h, time 14 day
Cytochrome P450 1A2 = molecular target: T1, Cytochrome P450 1A2 (Mus musculus, UniProt P00186); experiment: Inhibition of mouse CYP1A2 at 0.01 to 50 uM measured after 30 mins by LC-MS/MS analysis; format: ADME; settings: 0.5 h, dose 0.01-50 µM
T1 sequence (P00186 whole entry): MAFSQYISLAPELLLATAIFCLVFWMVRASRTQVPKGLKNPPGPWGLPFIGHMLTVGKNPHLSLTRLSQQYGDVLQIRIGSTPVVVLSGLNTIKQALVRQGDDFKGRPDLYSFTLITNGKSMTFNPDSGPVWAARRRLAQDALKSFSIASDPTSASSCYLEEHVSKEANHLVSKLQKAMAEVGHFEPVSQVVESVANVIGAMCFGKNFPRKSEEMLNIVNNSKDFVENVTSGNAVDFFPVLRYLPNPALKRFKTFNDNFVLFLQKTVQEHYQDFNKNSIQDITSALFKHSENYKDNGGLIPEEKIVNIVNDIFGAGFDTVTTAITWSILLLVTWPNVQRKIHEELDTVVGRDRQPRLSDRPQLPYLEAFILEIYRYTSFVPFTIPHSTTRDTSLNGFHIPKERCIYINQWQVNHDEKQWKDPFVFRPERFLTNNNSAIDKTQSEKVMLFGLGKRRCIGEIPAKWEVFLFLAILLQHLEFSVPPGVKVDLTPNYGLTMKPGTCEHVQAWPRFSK

[36] = Acute toxicity in IG dosed Sprague-Dawley rat assessed as minimum lethal dose measured for 7 days; format: organism-based; settings: in vivo, po, 168 h, time 7 day
[37] = AUC (0 to t) in male Sprague-Dawley rat at 25 mg/kg, po measured upto 24 hrs by LC-MS/MS analysis; format: ADME, organism-based; settings: in vivo
[38] = Subacute toxicity in Sprague-Dawley rat assessed as increase in aspartate aminotransferase level in serum at 140 mg/kg, IG administered once a day for 14 days; format: organism-based; settings: in vivo, po, 336 h, time 14 day
[39] = Plasma protein binding in human assessed as binding rate at 1200 ng/ml prewarmed for 30 mins by LC-MS/MS analysis; format: ADME, cell-free; settings: read-out: PPB (converted)
[40] = Tmax in male Sprague-Dawley rat at 25 mg/kg, po measured upto 24 hrs by LC-MS/MS analysis; format: ADME, organism-based; settings: in vivo
[41] = molecular target: Voltage-gated inwardly rectifying potassium channel KCNH2 (Homo sapiens, UniProt Q12809); experiment: Inhibition of hERG in HEK293 cells measured after 5 mins by patch-clamp assay
Voltage-gated inwardly rectifying potassium channel KCNH2, sequence (Q12809 whole entry): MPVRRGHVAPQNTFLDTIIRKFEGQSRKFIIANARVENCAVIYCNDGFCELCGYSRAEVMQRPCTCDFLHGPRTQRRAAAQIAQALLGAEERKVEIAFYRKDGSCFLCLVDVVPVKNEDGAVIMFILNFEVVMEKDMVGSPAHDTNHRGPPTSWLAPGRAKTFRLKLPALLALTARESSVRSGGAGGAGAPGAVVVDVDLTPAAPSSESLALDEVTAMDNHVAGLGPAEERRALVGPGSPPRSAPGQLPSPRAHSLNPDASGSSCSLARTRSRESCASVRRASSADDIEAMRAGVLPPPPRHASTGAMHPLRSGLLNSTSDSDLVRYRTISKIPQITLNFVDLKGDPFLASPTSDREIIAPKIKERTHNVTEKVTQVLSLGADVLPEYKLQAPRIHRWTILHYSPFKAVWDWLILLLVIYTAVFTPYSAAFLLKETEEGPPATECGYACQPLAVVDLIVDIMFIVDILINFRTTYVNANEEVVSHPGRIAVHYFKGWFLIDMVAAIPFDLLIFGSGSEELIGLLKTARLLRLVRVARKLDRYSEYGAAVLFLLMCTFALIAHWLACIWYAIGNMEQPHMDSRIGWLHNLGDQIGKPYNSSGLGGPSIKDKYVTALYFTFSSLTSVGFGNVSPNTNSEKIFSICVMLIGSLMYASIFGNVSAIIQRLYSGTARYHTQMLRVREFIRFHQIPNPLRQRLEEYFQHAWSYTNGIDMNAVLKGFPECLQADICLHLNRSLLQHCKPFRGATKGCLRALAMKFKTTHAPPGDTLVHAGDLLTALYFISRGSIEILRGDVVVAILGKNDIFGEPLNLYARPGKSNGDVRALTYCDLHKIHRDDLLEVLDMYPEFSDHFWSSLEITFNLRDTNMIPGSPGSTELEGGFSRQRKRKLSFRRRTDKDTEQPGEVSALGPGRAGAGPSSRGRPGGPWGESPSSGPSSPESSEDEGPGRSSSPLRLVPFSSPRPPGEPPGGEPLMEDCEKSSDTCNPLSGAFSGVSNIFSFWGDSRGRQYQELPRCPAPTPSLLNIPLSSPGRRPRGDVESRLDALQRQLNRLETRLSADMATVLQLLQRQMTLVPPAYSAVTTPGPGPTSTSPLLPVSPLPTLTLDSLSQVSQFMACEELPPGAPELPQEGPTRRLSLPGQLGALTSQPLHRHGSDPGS

[42] = Plasma protein binding in human assessed as binding rate at 1000 ng/ml prewarmed for 30 mins by LC-MS/MS analysis; format: ADME, cell-free; settings: read-out: PPB (converted)
[43] = molecular target: Muscarinic acetylcholine receptor M3 (Homo sapiens, UniProt P20309); experiment: Antagonist activity at human muscarinic M3 receptor expressed in PathHunter U2OS CHRM3 beta-arrestin cells preincubated for 30 mins followed by agonist addition at 6 times EC80 and measured after 90 to 180 mins by PathHunter assay; format: functional, cell-based
Muscarinic acetylcholine receptor M3, sequence (P20309 whole entry): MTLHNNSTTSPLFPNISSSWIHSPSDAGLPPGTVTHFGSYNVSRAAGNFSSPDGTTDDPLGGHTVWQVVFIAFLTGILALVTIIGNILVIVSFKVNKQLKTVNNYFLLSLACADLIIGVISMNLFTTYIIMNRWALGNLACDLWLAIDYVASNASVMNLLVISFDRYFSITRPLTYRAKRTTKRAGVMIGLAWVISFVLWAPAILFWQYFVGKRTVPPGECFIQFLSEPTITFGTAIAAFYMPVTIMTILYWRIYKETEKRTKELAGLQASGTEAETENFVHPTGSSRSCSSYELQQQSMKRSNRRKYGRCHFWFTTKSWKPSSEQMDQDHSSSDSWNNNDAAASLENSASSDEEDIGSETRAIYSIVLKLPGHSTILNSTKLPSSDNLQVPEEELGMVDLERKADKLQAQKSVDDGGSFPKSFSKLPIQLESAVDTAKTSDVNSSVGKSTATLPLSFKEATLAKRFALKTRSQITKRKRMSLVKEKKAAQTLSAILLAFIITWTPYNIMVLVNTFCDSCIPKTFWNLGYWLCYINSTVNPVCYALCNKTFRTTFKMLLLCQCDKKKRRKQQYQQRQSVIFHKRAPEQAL

[44] = Subacute toxicity in Sprague-Dawley rat assessed as animal death at 50 to 140 mg/kg, IG administered once a day for 14 days; format: organism-based; settings: in vivo, po, 336 h, dose 50-140 mg/kg, time 14 day
[45] = Plasma protein binding in rat assessed as binding rate at 1200 ng/ml prewarmed for 30 mins by LC-MS/MS analysis; format: ADME, cell-free; settings: read-out: PPB (converted)
[46] = Metabolic stability in mouse liver microsomes assessed as half life at 1 uM measured upto 120 mins by LC-MS/MS analysis; format: ADME, Microsome
[47] = AUC (0 to infinity) in male Sprague-Dawley rat at 25 mg/kg, po measured upto 24 hrs by LC-MS/MS analysis; format: ADME, organism-based; settings: in vivo
[48] = Clearance in male Sprague-Dawley rat at 25 mg/kg, po measured upto 24 hrs by LC-MS/MS analysis; format: ADME, organism-based; settings: in vivo
[49] = Plasma protein binding in rat assessed as binding rate at 500 ng/ml prewarmed for 30 mins by LC-MS/MS analysis; format: ADME, cell-free; settings: read-out: PPB (converted)
[50] = Subacute toxicity in Sprague-Dawley rat assessed as effect on lymphocyte count at 140 mg/kg, IG administered once a day for 14 days; format: organism-based; settings: in vivo, po, 336 h, time 14 day
[51] = MRT (0 to infinity) in male Sprague-Dawley rat at 25 mg/kg, po measured upto 24 hrs by LC-MS/MS analysis; format: ADME, organism-based; settings: in vivo
[52] = Clearance in male Sprague-Dawley rat at 4 mg/kg, iv administered via tail vein and measured upto 24 hrs by LC-MS/MS analysis; format: ADME, organism-based; settings: in vivo
[53] = Efflux ratio of apparent permeability across basolateral to apical over apical to basolateral side in human Caco-2 cells at 5 uM measured at 60 mins; format: ADME, cell-based

Compound: CC(C)(C(=O)O)c1cccc(CCCN2CCC(=C3c4ccc(Cl)cc4CCc4cccnc43)CC2)c1
Activity [1]: Toxic
Activity [2]: Toxic
Cmax [3]: 1930 ng/g
AUC(0-t) at 24 h [4]: 1680 ng·h/mL
MRT inf [5]: 0.7 h
Activity [6]: Toxic
Cmax [7]: 126 ng/g
Activity [8]: Non-Toxic
AUC(0-inf) [9]: 1820 ng·h/mL
Stability [10]: Stable
fraction unbound at 0.5 h, 250 ng/ml [11]: 0.347
fraction unbound at 0.5 h, 1000 ng/ml [12]: 0.327
fraction unbound at 0.5 h, 250 ng/ml [13]: 0.346
Activity [14]: Toxic
Activity [15]: Non-Toxic
Activity [16]: Toxic
Stability [17]: Stable
Kp [18]: 0.066
Activity [19]: Toxic
fraction unbound at 0.5 h, 500 ng/ml [20]: 0.321
Papp B→A at 1 h, 5 µM [21]: 6.06 ×10⁻⁶ cm/s
Cmax [22]: 239 ng/g
Vd [23]: 1.77 L/kg
Kp [24]: 0.066
Cmax [25]: 1720 ng/mL
half-life [26]: 0.653 h
Activity [27]: Non-Toxic
Vd [28]: 21.26 L/kg
half-life [29]: 4.05 h
Papp A→B at 1 h, 5 µM [30]: 5.82 ×10⁻⁶ cm/s
Activity [31]: Toxic
Cmax [32]: 15.8 ng/g
bioavailability [33]: 59.5%
Activity [34]: Non-Toxic
Activity [35]: Non-Toxic
inhibition (INH) (Cytochrome P450 1A2): Not Active
MLD [36]: 350 mg/kg
AUC(0-t) at 24 h [37]: 6250 ng·h/mL
Activity [38]: Toxic
fraction unbound at 0.5 h, 1200 ng/ml [39]: 0.284
Tmax [40]: 0.38 h
IC50 [41]: 17.6 µM
fraction unbound at 0.5 h, 1000 ng/ml [42]: 0.321
IC50 [43]: > 10 µM
Activity [44]: Non-Toxic
fraction unbound at 0.5 h, 1200 ng/ml [45]: 0.302
half-life at 1 µM [46]: 1.44 h
AUC(0-inf) [47]: 7210 ng·h/mL
CL/F [48]: 59.4 mL/min/kg
fraction unbound at 0.5 h, 500 ng/ml [49]: 0.34
Activity [50]: Non-Toxic
MRT inf [51]: 6.01 h
clearance [52]: 37 mL/min/kg

IC50 [43]: > 10 µM
Compound: CC(C)(C(=O)O)c1ccc(CCCN2CCC(=C3c4ccc(Cl)cc4CCc4cccnc43)CC2)cc1
IC50 [41]: > 30 µM

IC50 [43]: > 10 µM
Compound: CC(C)(C(=O)O)c1cccc(NCCN2CCC(=C3c4ccc(Cl)cc4CCc4cccnc43)CC2)c1

Papp B→A at 1 h, 5 µM [21]: 20.5 ×10⁻⁶ cm/s
Papp A→B at 1 h, 5 µM [30]: 34.8 ×10⁻⁶ cm/s
efflux ratio at 1 h, 5 µM [53]: 0.59
Compound: CC(C)NCC(O)COc1cccc2ccccc12 (centres undefined) [PROPRANOLOL]
